pKi: −log10 of the molar value. Several values for one entry are separate records, joined by “and”; a condition that tells them apart may be missing. Equal values may be shown once.
Assays:
[1] = target: T1, Soluble recombinant rat CD73 (Rattus norvegicus, UniProt P21588); test: CD73 enzyme inhibition assay, soluble rat CD73; format: biochemical; conditions: soluble recombinant rat CD73, Km 59 µM, substrate AMP (5 µM)
T1 sequence (P21588 29-551 limits assumed): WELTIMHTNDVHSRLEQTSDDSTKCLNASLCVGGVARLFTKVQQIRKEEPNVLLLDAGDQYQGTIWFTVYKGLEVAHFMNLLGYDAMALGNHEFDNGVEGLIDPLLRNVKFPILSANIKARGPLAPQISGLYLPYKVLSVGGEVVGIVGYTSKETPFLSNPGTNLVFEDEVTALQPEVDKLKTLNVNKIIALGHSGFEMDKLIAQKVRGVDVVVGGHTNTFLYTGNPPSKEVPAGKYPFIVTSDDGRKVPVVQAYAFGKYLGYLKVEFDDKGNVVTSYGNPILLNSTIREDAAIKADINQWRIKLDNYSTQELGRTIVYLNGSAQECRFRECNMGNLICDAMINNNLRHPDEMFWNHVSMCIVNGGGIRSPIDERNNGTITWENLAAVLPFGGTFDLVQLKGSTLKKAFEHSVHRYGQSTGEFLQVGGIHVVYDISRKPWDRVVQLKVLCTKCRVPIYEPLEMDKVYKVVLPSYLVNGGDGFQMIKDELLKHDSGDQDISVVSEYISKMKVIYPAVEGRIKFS
Experimental: Both compounds were evaluated for metabolic stability in mouse liver microsomes (MLM) and plasma protein binding (PPB) (Table 1).
The CD73 enzyme inhibition assay of recombinant soluble CD73, membrane-bound human CD73, soluble rat CD73 and mouse CD73 was performed as previously described.^[16,35^]

[2] = Stability in mouse liver microsomes (MLM); format: in vitro ADME; conditions: after 90 min of coincubation, 5 µM compound, 37 °C
Experimental: An aqueous buffer of 75 mM PBS, 12.5 mM MgCl2, 0.6 mM NADPH, 1 mg/mL mouse liver microsomes and 5 µM of the respective compound was prepared. 200 µL of these samples were incubated for 90 min at 37 °C and […]. Afterward, acetonitrile/methanol (400 µL, 1:1) was added, and the samples were cooled to 0 °C for 10 min. 600 µL buffer was added and the solution was centrifuged for 15 min at 17,880 g. The supernatant was centrifuged again for 15 min at 17,880 g and 4 °C. The obtained solution was diluted with H2O/CH3CN/CH3OH (1:1:1) to a suitable concentration for quantification. Shortly before injection into HPLC, the solution was centrifuged again for 2 min at 17,880 g and 4 °C. The amount of remaining compound in the solution was quantified by ion count in SIM mode via HPLC-MS (CH3CN/water). The injection volume was 50 µL. Every experiment was performed in triplicate.

[3] = target: T2, CD73/AMPase activity in human breast tumor tissues (Homo sapiens, UniProt P21589); test: In situ enzyme histochemistry of AMPase activity in breast tumor cryosections; format: biochemical; conditions: 10–50 nM inhibitor, 400 µM AMP, tissue cryosections
T2 construct: cryosections of breast tumor samples as well as sentinel lymph node samples were investigated; from tissue; host or cells: primary breast tumors and sentinel lymph nodes of two patients, 6 µm cryosections
T2 sequence (P21589 27-574): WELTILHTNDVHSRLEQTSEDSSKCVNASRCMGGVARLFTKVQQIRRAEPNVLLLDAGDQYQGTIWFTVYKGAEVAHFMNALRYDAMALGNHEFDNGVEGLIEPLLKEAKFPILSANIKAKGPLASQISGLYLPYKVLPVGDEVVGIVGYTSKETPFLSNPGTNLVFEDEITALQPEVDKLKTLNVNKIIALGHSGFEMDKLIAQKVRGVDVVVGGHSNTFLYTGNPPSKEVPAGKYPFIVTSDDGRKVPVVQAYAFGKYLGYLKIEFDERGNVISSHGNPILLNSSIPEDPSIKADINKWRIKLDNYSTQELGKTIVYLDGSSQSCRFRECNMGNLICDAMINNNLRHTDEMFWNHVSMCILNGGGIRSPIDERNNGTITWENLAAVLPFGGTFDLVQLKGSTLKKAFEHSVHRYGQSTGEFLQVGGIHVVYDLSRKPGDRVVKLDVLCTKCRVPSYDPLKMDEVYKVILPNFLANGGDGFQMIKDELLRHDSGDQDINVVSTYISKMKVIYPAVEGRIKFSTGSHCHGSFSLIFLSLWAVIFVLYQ
Experimental: Subsequent analysis of CD73‐mediated AMPase activities was performed by incubating tissue cryosections with AMP and CD73 inhibitors at different concentrations. Figure 2 depicts representative images of AMP‐specific staining in breast tumors from patient X (panel A) and patient Y (panel B), determined in the absence (control) and in the presence of 10 nM of the potent CD73 inhibitor 1.
FIGURE 3 Effects of CD73 inhibitors on AMPase activity in human breast tumor tissues. The effects of CD73 inhibitors on AMPase activity was determined in situ by incubating primary breast tumor samples from patient X (A) and patient Y (B) with 400 µM AMP and 1.5 mM Pb(NO3)2 in the absence (control) and the presence of the indicated concentrations of CD73 inhibitor. (C). Mean pixel intensities of brown staining due to the hydrolysis of AMP leading to Pb3(PO4)2 precipitation were quantified in the selected regions and expressed as arbitrary units (AU) (mean ± SEM; n = 2). Scale bars: 2 mm (A, B), and 500 µm (A, right insets).
For the localization of AMPase activities in human tumors, the lead nitrate-based enzyme histochemistry was employed. […] AMPase activity was determined by measuring AMP-specific brown staining intensities from the images using QuPath v.0.3.0 software. […] The average DAB intensity levels were measured as described earlier.^[39^] […]

CCCN(Cc1ccc(-c2cn(CCF)nn2)cc1)c1nc(Cl)nc2c1ncn2[C@@H]1O[C@H](COP(=O)(O)CP(=O)(O)O)[C@@H](O)[C@H]1O [compound 1]
pKi [1]: 8.22
Metabolic stability in mouse liver microsomes (MLM): % decomposition [2]: 17 ± 2% and 17%
Reduction of CD73/AMPase activity in the breast TME [3]: 60%–70
